# Test system: mice
# Experiment: Neuropharmacological assay (SmartCube), behavioral signature of compound-treated mice
# Type: in vivo
# Conditions: i.p. 15 min before behavioral test, most efficacious dose(s) of 3 doses
# How it was run: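 Mice received compound i.p. in NMP/PEG/propylene glycol vehicle at 3 doses, 15 min before testing. Video-captured behavior was algorithmically compared with a reference-drug signature database.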
Compound,AD: ADHD (probability that behavioral signature matches class),AG: analgesic (probability that behavioral signature matches class),AX: anxiolytic (probability that behavioral signature matches class),CE: cognitive enhancer (probability that behavioral signature matches class),DP: anti-depressant (probability that behavioral signature matches class),HA: hallucinogen (probability that behavioral signature matches class),MS: mood stabilizer (probability that behavioral signature matches class),PS: anti-psychotic (probability that behavioral signature matches class),SD: sedative hypnotic (probability that behavioral signature matches class),UN: uncharacterized CNS activity (probability that behavioral signature matches class)
"c1ccc2c(c1)CCO[C@H]2[C@@H]1COCCN1 [Compound I-76, (S)-3-((R)-isochroman-1-yl)morpholine]",+ (LOQ ≤ + <5%),++ (5% ≤ ++ <25%),++ (5% ≤ ++ <25%),+ (LOQ ≤ + <5%),++ (5% ≤ ++ <25%),+ (LOQ ≤ + <5%),+ (LOQ ≤ + <5%),++ (5% ≤ ++ <25%),+ (LOQ ≤ + <5%),+ (LOQ ≤ + <5%)
"Clc1ccc2c(c1)CCO[C@H]2[C@H]1CCCN1 [Compound I-35, (R)-2-((R)-6-chloroisochroman-1-yl)pyrrolidine]",+ (LOQ ≤ + <5%),+ (LOQ ≤ + <5%),++ (5% ≤ ++ <25%),++ (5% ≤ ++ <25%),++ (5% ≤ ++ <25%),+ (LOQ ≤ + <5%),+ (LOQ ≤ + <5%),+++ (25% ≤ +++ <50%),++ (5% ≤ ++ <25%),++ (5% ≤ ++ <25%)
"Fc1ccc2c(c1)CO[C@@H]2[C@H]1CCN1 [Compound I-127, (R)-2-((S)-5-fluoro-1,3-dihydroisobenzofuran-1-yl)azetidine]",+ (LOQ ≤ + <5%),++ (5% ≤ ++ <25%),++ (5% ≤ ++ <25%),++ (5% ≤ ++ <25%),++ (5% ≤ ++ <25%),+ (LOQ ≤ + <5%),+ (LOQ ≤ + <5%),++ (5% ≤ ++ <25%),+ (LOQ ≤ + <5%),++ (5% ≤ ++ <25%)
"CN1CCC[C@H]1[C@@H]1OCCc2cc(F)ccc21 [Compound I-69, (S)-2-((R)-6-fluoroisochroman-1-yl)-1-methylpyrrolidine]",+ (LOQ ≤ + <5%),+++ (25% ≤ +++ <50%),++ (5% ≤ ++ <25%),++ (5% ≤ ++ <25%),++ (5% ≤ ++ <25%),+ (LOQ ≤ + <5%),+ (LOQ ≤ + <5%),++ (5% ≤ ++ <25%),+ (LOQ ≤ + <5%),+ (LOQ ≤ + <5%)

# Same assay, conditions: i.p. 15 min before behavioral test, most efficacious dose(s) of 3 doses
row,Compound,XG: anxiogenic (probability that behavioral signature matches class)
1,"c1ccc2c(c1)CCO[C@H]2[C@@H]1COCCN1 [Compound I-76, (S)-3-((R)-isochroman-1-yl)morpholine]",+ (LOQ ≤ + <5%)
2,"Clc1ccc2c(c1)CCO[C@H]2[C@H]1CCCN1 [Compound I-35, (R)-2-((R)-6-chloroisochroman-1-yl)pyrrolidine]",+ (LOQ ≤ + <5%)
3,"Fc1ccc2c(c1)CO[C@@H]2[C@H]1CCN1 [Compound I-127, (R)-2-((S)-5-fluoro-1,3-dihydroisobenzofuran-1-yl)azetidine]",+ (LOQ ≤ + <5%)
4,"CN1CCC[C@H]1[C@@H]1OCCc2cc(F)ccc21 [Compound I-69, (S)-2-((R)-6-fluoroisochroman-1-yl)-1-methylpyrrolidine]",+ (LOQ ≤ + <5%)

# Reference: patent publication US10336732B2, “1-heterocyclyl isochromanyl compounds and analogs for treating CNS disorders” (Sunovion Pharmaceuticals Inc., priority 2015, dated 2019)
